Results: patent publication US9708314B2, “Heterocyclic amide compound” (NISSAN CHEMICAL INDUSTRIES, LTD., priority 2013, dated 2017)

How the values were obtained:
Type in all cases: in vivo
[1] = tested on: Echinochloa oryzacola Vasing.; assay: Test Example 2: herbicidal activity, application during weed generation in submerged conditions; settings: Eighteenth Table
In short: (§1)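 Scored three weeks post-application on a 0–5 scale (5: ≥90% herbicidal ratio, almost withered; 0: ≤5%). Plants raised from mixed-sown seed in submerged alluvial soil (4 cm water), 25–30 °C greenhouse; water-diluted emulsion applied onto water surface at one- to two-leaf stage, dose in g/ha.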

[2] = tested on: Monochoria vaginalis; assay: as above; settings: Eighteenth Table
In short: as §1

[3] = tested on: Scirpus juncoides; assay: as above; settings: Eighteenth Table
In short: as §1

[4] = tested on: Abutilon theophrasti; assay: Test Example 4: herbicidal effect by application to foliage (diluvial soil, plastic box); settings: for M (Abutilon theophrasti) herbicidal effect: application to foliage, application herbicide amount 320 g/ha; for M: Application herbicide amount 320 g/ha
In short: (§2)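 Seeds sown in sterilized diluvial soil, covered ~1.5 cm, grown 14 days in greenhouse at 25° C. to 30° C. Emulsion formulation diluted in water to set rate (g/ha) and sprayed onto stems and leaves. Effect scored visually 3 weeks later on 0–5 scale (5 = ≥90% herbicidal ratio, 0 = ≤5%).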

[5] = tested on: Digitaria ciliaris; assay: as above; settings: for F (Digitaria ciliaris) herbicidal effect: application to foliage, application herbicide amount 320 g/ha; for F: Application herbicide amount 320 g/ha
In short: as §2

[6] = tested on: Setaria viridis; assay: as above; settings: for G (Setaria viridis) herbicidal effect: application to foliage, application herbicide amount 320 g/ha; for G: Application herbicide amount 320 g/ha
In short: as §2

[7] = tested on: Avena fatua; assay: as above; settings: for I (Avena fatua) herbicidal effect: application to foliage, application herbicide amount 320 g/ha
In short: as §2

[8] = tested on: Alopecurus myosuroides; assay: as above; settings: for J (Alopecurus myosuroides) herbicidal effect: application to foliage, application herbicide amount 320 g/ha; for J: Application herbicide amount 320 g/ha
In short: as §2

[9] = tested on: Veronica persica; assay: as above; settings: for R (Veronica persica) herbicidal effect: application to foliage, application herbicide amount 320 g/ha; for R: Application herbicide amount 320 g/ha
In short: as §2

[10] = tested on: Chenopodium album; assay: as above; settings: for O (Chenopodium album) herbicidal effect: application to foliage, application herbicide amount 320 g/ha; for O: Application herbicide amount 320 g/ha
In short: as §2

[11] = tested on: Echinochloa crus-galli var. crus-galli; assay: as above; settings: for H (Echinochloa crus-galli var. crus-galli) herbicidal effect: application to foliage, application herbicide amount 320 g/ha; for H: Application herbicide amount 320 g/ha
In short: as §2

[12] = tested on: Lolium multiflorum Lam.; assay: as above; settings: for K (Lolium multiflorum Lam.) herbicidal effect: application to foliage, application herbicide amount 320 g/ha; for K: Application herbicide amount 320 g/ha
In short: as §2

[13] = tested on: Apera spica-venti.; assay: as above; settings: for L (Apera spica-venti.) herbicidal effect: application to foliage, application herbicide amount 320 g/ha; for L: Application herbicide amount 320 g/ha
In short: as §2

[14] = tested on: Galium spurium; assay: as above; settings: for Q (Galium spurium) herbicidal effect: application to foliage, application herbicide amount 320 g/ha; for Q: Application herbicide amount 320 g/ha
In short: as §2

[15] = tested on: Zea mays; assay: Test Example 4: effect on crop by application to foliage (diluvial soil, plastic box); settings: for b (Zea mays) effect on crop: application to foliage, application herbicide amount 320 g/ha; for b: Application herbicide amount 320 g/ha, effect on crop
In short: as §2

[16] = tested on: Beta vulgaris ssp. vulgaris; assay: as above; settings: for f (Beta vulgaris ssp. vulgaris) effect on crop: application to foliage, application herbicide amount 320 g/ha; for f: Application herbicide amount 320 g/ha, effect on crop
In short: as §2

[17] = tested on: Brassica campestris L.; assay: as above; settings: for g (Brassica campestris L.) effect on crop: application to foliage, application herbicide amount 320 g/ha; for g: Application herbicide amount 320 g/ha, effect on crop
In short: as §2

[18] = tested on: directly sowed Oryza sativa; assay: as above; settings: for d (directly sowed Oryza sativa) effect on crop: application to foliage, application herbicide amount 320 g/ha; for d: Application herbicide amount 320 g/ha, effect on crop
In short: as §2

[19] = tested on: Triticum aestivum; assay: as above; settings: for e (Triticum aestivum) effect on crop: application to foliage, application herbicide amount 320 g/ha; for e: Application herbicide amount 320 g/ha, effect on crop
In short: as §2

[20] = tested on: Glycine max; assay: as above; settings: for c (Glycine max) effect on crop: application to foliage, application herbicide amount 320 g/ha; for c: Application herbicide amount 320 g/ha, effect on crop
In short: as §2

[21] = application herbicide amount 280 g/ha
[22] = application herbicide amount 320 g/ha

Compound	M (Abutilon theophrasti) herbicidal effect [4]	F (Digitaria ciliaris) herbicidal effect [5]	G (Setaria viridis) herbicidal effect [6]	I (Avena fatua) herbicidal effect [7]	J (Alopecurus myosuroides) herbicidal effect [8]	R (Veronica persica) herbicidal effect [9]	O (Chenopodium album) herbicidal effect [10]	H (Echinochloa crus-galli var. crus-galli) herbicidal effect [11]	K (Lolium multiflorum Lam.) herbicidal effect [12]	L (Apera spica-venti.) herbicidal effect [13]	Q (Galium spurium) herbicidal effect [14]	b (Zea mays) effect on crop [15]	f (Beta vulgaris ssp. vulgaris) effect on crop [16]	g (Brassica campestris L.) effect on crop [17]	d (directly sowed Oryza sativa) effect on crop [18]	e (Triticum aestivum) effect on crop [19]	c (Glycine max) effect on crop [20]	A (Echinochloa oryzicola Vasing.) herbicidal ratio grade [1, 22]	C (Monochoria vaginalis) herbicidal ratio grade [2, 22]	B (Scirpus juncoides) herbicidal ratio grade [3, 22]	further results
Cc1nnc(NC(=O)c2ccc(C(F)(F)F)n3c(Br)nnc23)o1 [1-014]	4 (Herbicidal ratio of 70% or more and less than 90%)	3 (Herbicidal ratio of 40% or more and less than 70%)	3 (Herbicidal ratio of 40% or more and less than 70%)	1 (Herbicidal ratio of 5% or more and less than 20%)	1 (Herbicidal ratio of 5% or more and less than 20%)	4 (Herbicidal ratio of 70% or more and less than 90%)	5 (Herbicidal ratio of 90% or more (almost completely withered))	4 (Herbicidal ratio of 70% or more and less than 90%)	1 (Herbicidal ratio of 5% or more and less than 20%)	0 (Herbicidal ratio of 5% or less (almost no effect))	3 (Herbicidal ratio of 40% or more and less than 70%)	1 (Herbicidal ratio of 5% or more and less than 20%)	5 (Herbicidal ratio of 90% or more (almost completely withered))	2 (Herbicidal ratio of 20% or more and less than 40%)	3 (Herbicidal ratio of 40% or more and less than 70%)	1 (Herbicidal ratio of 5% or more and less than 20%)	0 (Herbicidal ratio of 5% or less (almost no effect))				A (Echinochloa oryzicola Vasing.) herbicidal ratio grade [1, 21]: 2 (Herbicidal ratio of 20% or more and less than 40%); C (Monochoria vaginalis) herbicidal ratio grade [2, 21]: 0 (Herbicidal ratio of 5% or less (almost no effect)); B (Scirpus juncoides) herbicidal ratio grade [3, 21]: 3 (Herbicidal ratio of 40% or more and less than 70%)
Cc1nnc(NC(=O)c2ccc(C(F)(F)F)n3c(N(C)C)nnc23)o1 [1-076]																		2 (Herbicidal ratio of 20% or more and less than 40%)	4 (Herbicidal ratio of 70% or more and less than 90%)	0 (Herbicidal ratio of 5% or less (almost no effect))	M [4]: 4 (Herbicidal ratio of 70% or more and less than 90%); F [5]: 5 (Herbicidal ratio of 90% or more (almost completely withered)); G [6]: 5 (Herbicidal ratio of 90% or more (almost completely withered)); I ([7]; Application herbicide amount 320 g/ha): 3 (Herbicidal ratio of 40% or more and less than 70%); J [8]: 3 (Herbicidal ratio of 40% or more and less than 70%); R [9]: 4 (Herbicidal ratio of 70% or more and less than 90%); O [10]: 5 (Herbicidal ratio of 90% or more (almost completely withered)); H [11]: 5 (Herbicidal ratio of 90% or more (almost completely withered)); K [12]: 3 (Herbicidal ratio of 40% or more and less than 70%); L [13]: 4 (Herbicidal ratio of 70% or more and less than 90%); Q [14]: 2 (Herbicidal ratio of 20% or more and less than 40%); b [15]: 0 (Herbicidal ratio of 5% or less (almost no effect)); f [16]: 5 (Herbicidal ratio of 90% or more (almost completely withered)); g [17]: 4 (Herbicidal ratio of 70% or more and less than 90%); d [18]: 3 (Herbicidal ratio of 40% or more and less than 70%); e [19]: 3 (Herbicidal ratio of 40% or more and less than 70%); c [20]: 3 (Herbicidal ratio of 40% or more and less than 70%)
Cc1nnc(NC(=O)c2ccc(C(F)(F)F)n3c(C(C)C)nnc23)o1 [1-004, 3-Isopropyl-N-(5-methyl-1,3,4-oxadiazol-2-yl)-5-(trifluoromethyl)-[1,2,4]triazolo[4,3-a]pyridine-8-carboxamide]	4 (Herbicidal ratio of 70% or more and less than 90%)	5 (Herbicidal ratio of 90% or more (almost completely withered))	4 (Herbicidal ratio of 70% or more and less than 90%)	2 (Herbicidal ratio of 20% or more and less than 40%)	2 (Herbicidal ratio of 20% or more and less than 40%)	4 (Herbicidal ratio of 70% or more and less than 90%)	5 (Herbicidal ratio of 90% or more (almost completely withered))	5 (Herbicidal ratio of 90% or more (almost completely withered))	2 (Herbicidal ratio of 20% or more and less than 40%)	3 (Herbicidal ratio of 40% or more and less than 70%)	1 (Herbicidal ratio of 5% or more and less than 20%)	0 (Herbicidal ratio of 5% or less (almost no effect))	4 (Herbicidal ratio of 70% or more and less than 90%)	3 (Herbicidal ratio of 40% or more and less than 70%)	4 (Herbicidal ratio of 70% or more and less than 90%)	2 (Herbicidal ratio of 20% or more and less than 40%)	4 (Herbicidal ratio of 70% or more and less than 90%)	4 (Herbicidal ratio of 70% or more and less than 90%)	4 (Herbicidal ratio of 70% or more and less than 90%)	3 (Herbicidal ratio of 40% or more and less than 70%)	
Cc1nnc(NC(=O)c2ccc(C(F)(F)F)n3c(CCS(C)(=O)=O)nnc23)o1 [1-085]																		3 (Herbicidal ratio of 40% or more and less than 70%)	2 (Herbicidal ratio of 20% or more and less than 40%)	2 (Herbicidal ratio of 20% or more and less than 40%)	M [4]: 5 (Herbicidal ratio of 90% or more (almost completely withered)); F [5]: 5 (Herbicidal ratio of 90% or more (almost completely withered)); G [6]: 5 (Herbicidal ratio of 90% or more (almost completely withered)); J [8]: 3 (Herbicidal ratio of 40% or more and less than 70%); R [9]: 5 (Herbicidal ratio of 90% or more (almost completely withered)); O [10]: 5 (Herbicidal ratio of 90% or more (almost completely withered)); H [11]: 5 (Herbicidal ratio of 90% or more (almost completely withered)); K [12]: 3 (Herbicidal ratio of 40% or more and less than 70%); L [13]: 3 (Herbicidal ratio of 40% or more and less than 70%); Q [14]: 4 (Herbicidal ratio of 70% or more and less than 90%); b [15]: 3 (Herbicidal ratio of 40% or more and less than 70%); f [16]: 4 (Herbicidal ratio of 70% or more and less than 90%); g [17]: 4 (Herbicidal ratio of 70% or more and less than 90%); d [18]: 4 (Herbicidal ratio of 70% or more and less than 90%); e [19]: 3 (Herbicidal ratio of 40% or more and less than 70%); c [20]: 3 (Herbicidal ratio of 40% or more and less than 70%)
